# Measured values from patent US10420341B2, “Herbicidal phenylpyrimidines” (BASF SE, priority 2015, dated 2019).
# How the values were obtained:
# ABUTH = assay: greenhouse post-emergence herbicidal test; type: in vivo, Abutilon theophrasti; details: post-emergence method, scale from 0 to 100
# Excerpt: (§1) The seeds of the test plants were sown separately for each species. For the post-emergence treatment, the test plants were first grown to a height of 3 to 15 cm, depending on the plant habit, and only then treated with the active ingredients which had been suspended or emulsified in water. For this purpose, the test plants were either sown directly and grown in the same containers, or they were first grown separately as seedlings and transplanted into the test containers a few days prior to treatment. Depending on the species, the plants were kept at 10-25° C. or 20-35° C., respectively. The test period extended over 2 to 4 weeks. During this time, the plants were tended, and their response to the individual treatments was evaluated. Evaluation was carried out using a scale from 0 to 100. 100 means no emergence of the plants, or complete destruction of at least the aerial moieties, and 0 means no damage, or normal course of growth. […] The plants used in the greenhouse experiments were of the following species: [table]
# ECHCG [1] = assay: greenhouse pre-emergence herbicidal test; type: in vivo, Echinocloa crus-galli; details: pre-emergence method, scale from 0 to 100
# Outline: (§2)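 Compounds suspended or emulsified in water, sprayed pre-emergence directly after sowing; containers covered until rooting, kept at 10-25 °C or 20-35 °C by species. Damage scored 0-100 (100 = no emergence or complete destruction of aerial parts) after 2 to 4 weeks.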
# APESV = assay: greenhouse pre-emergence herbicidal test; type: in vivo, Apera spica-venti; details: pre-emergence method, scale from 0 to 100
# Outline: as §2
# AMARE = assay: greenhouse post-emergence herbicidal test; type: in vivo, Amaranthus retroflexus; details: post-emergence method, scale from 0 to 100
# Excerpt: as §1
# ECHCG [2] = assay: greenhouse post-emergence herbicidal test; type: in vivo, Echinocloa crus-galli; details: post-emergence method, scale from 0 to 100
# Outline: (§3)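 Post-emergence; plants at 3–15 cm, treated with aqueous suspension/emulsion of compound. 10–25 °C or 20–35 °C per species, 2–4 wk. Score 0 (no damage) to 100 (aerial parts destroyed).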
# ALOMY [3] = assay: greenhouse post-emergence herbicidal test; type: in vivo, Alopercurus myosuroides; details: post-emergence method, scale from 0 to 100
# Outline: as §3
# POLCO = assay: greenhouse post-emergence herbicidal test; type: in vivo, Polygonum convolvulus; details: post-emergence method, application rate 1000 g/ha, scale from 0 to 100
# Excerpt: as §1
# ALOMY [4] = assay: greenhouse pre-emergence herbicidal test; type: in vivo, Alopercurus myosuroides; details: pre-emergence method, application rate 500 g/ha, scale from 0 to 100
# Excerpt: The seeds of the test plants were sown separately for each species. For the pre-emergence treatment, the active ingredients, which had been suspended or emulsified in water, were applied directly after sowing by means of finely distributing nozzles. The containers were irrigated gently to promote germination and growth and subsequently covered with transparent plastic hoods until the plants had rooted. This cover caused uniform germination of the test plants, unless this had been impaired by the active ingredients. Depending on the species, the plants were kept at 10-25° C. or 20-35° C., respectively. The test period extended over 2 to 4 weeks. During this time, the plants were tended, and their response to the individual treatments was evaluated. Evaluation was carried out using a scale from 0 to 100. 100 means no emergence of the plants, or complete destruction of at least the aerial moieties, and 0 means no damage, or normal course of growth. […] The plants used in the greenhouse experiments were of the following species: [table]
compound,measurement,setting,value
CCc1ncc(-c2ccccc2OC)c(C(=O)O)n1 [example 16],herbicidal activity against ABUTH,ABUTH; application rate 2000 g/ha,very good (a very good herbicidal activity is given at values of at least 85)
same,herbicidal activity against ECHCG,ECHCG [1]; application rate 2000 g/ha,very good (a very good herbicidal activity is given at values of at least 85)
same,herbicidal activity against APESV,APESV; application rate 2000 g/ha,very good (a very good herbicidal activity is given at values of at least 85)
CC(C)c1ncc(-c2ccccc2Cl)c(C(=O)O)n1 [example 32],herbicidal activity against ABUTH,ABUTH; application rate 1000 g/ha,very good (a very good herbicidal activity is given at values of at least 85)
same,herbicidal activity against AMARE,AMARE; application rate 1000 g/ha,good (A good herbicidal activity is given at values of at least 70)
same,herbicidal activity against ECHCG,ECHCG [1]; application rate 1000 g/ha,very good (a very good herbicidal activity is given at values of at least 85)
same,herbicidal activity against APESV,APESV; application rate 1000 g/ha,very good (a very good herbicidal activity is given at values of at least 85)
COc1ccccc1-c1cnc(C(C)C)nc1C(=O)O [example 35],herbicidal activity against ABUTH,ABUTH; application rate 1000 g/ha,very good (a very good herbicidal activity is given at values of at least 85)
same,herbicidal activity against ECHCG,ECHCG [1]; application rate 1000 g/ha,very good (a very good herbicidal activity is given at values of at least 85)
same,herbicidal activity against APESV,APESV; application rate 1000 g/ha,very good (a very good herbicidal activity is given at values of at least 85)
Cc1ccccc1-c1cnc(CC(C)C)nc1C(=O)O [example 40],herbicidal activity against ABUTH,ABUTH; application rate 1000 g/ha,very good (a very good herbicidal activity is given at values of at least 85)
same,herbicidal activity against ECHCG,ECHCG [2]; application rate 1000 g/ha,good (A good herbicidal activity is given at values of at least 70)
same,herbicidal activity against APESV,APESV; application rate 1000 g/ha,good (A good herbicidal activity is given at values of at least 70)
CCC(C)c1ncc(-c2ccccc2C)c(C(=O)O)n1 (stereo not shown) [example 41],herbicidal activity against ABUTH,ABUTH; application rate 1000 g/ha,very good (a very good herbicidal activity is given at values of at least 85)
same,herbicidal activity against ECHCG,ECHCG [2]; application rate 1000 g/ha,good (A good herbicidal activity is given at values of at least 70)
same,herbicidal activity against APESV,APESV; application rate 1000 g/ha,very good (a very good herbicidal activity is given at values of at least 85)
COc1ncc(-c2cc(C)ccc2C)c(C(=O)O)n1 [example 54],herbicidal activity against ABUTH,ABUTH; application rate 1000 g/ha,good (A good herbicidal activity is given at values of at least 70)
same,herbicidal activity against ALOMY,ALOMY [3]; application rate 1000 g/ha,very good (a very good herbicidal activity is given at values of at least 85)
same,herbicidal activity against AMARE,AMARE; application rate 1000 g/ha,very good (a very good herbicidal activity is given at values of at least 85)
same,herbicidal activity against ECHCG,ECHCG [1]; application rate 1000 g/ha,very good (a very good herbicidal activity is given at values of at least 85)
same,herbicidal activity against APESV,APESV; application rate 1000 g/ha,very good (a very good herbicidal activity is given at values of at least 85)
CSc1ncc(-c2cccc(Cl)c2Cl)c(C(=O)O)n1 [example 90],herbicidal activity against ABUTH,ABUTH; application rate 2000 g/ha,good (A good herbicidal activity is given at values of at least 70)
same,herbicidal activity against AMARE,AMARE; application rate 2000 g/ha,very good (a very good herbicidal activity is given at values of at least 85)
same,herbicidal activity against ECHCG,ECHCG [2]; application rate 2000 g/ha,very good (a very good herbicidal activity is given at values of at least 85)
CSc1ncc(-c2ccc(F)cc2C)c(C(=O)O)n1 [example 94],herbicidal activity against POLCO,POLCO,very good (a very good herbicidal activity is given at values of at least 85)
same,herbicidal activity against ABUTH,ABUTH; application rate 1000 g/ha,good (A good herbicidal activity is given at values of at least 70)
same,herbicidal activity against ECHCG,ECHCG [2]; application rate 1000 g/ha,very good (a very good herbicidal activity is given at values of at least 85)
Cc1ccc(C)c(-c2cnc(N(C)C)nc2C(=O)O)c1 [example 129],herbicidal activity against ABUTH,ABUTH; application rate 500 g/ha,good (A good herbicidal activity is given at values of at least 70)
same,herbicidal activity against ECHCG,ECHCG [1]; application rate 500 g/ha,good (A good herbicidal activity is given at values of at least 70)
same,herbicidal activity against APESV,APESV; application rate 500 g/ha,very good (a very good herbicidal activity is given at values of at least 85)
O=C(O)c1nc(C2CC2)ncc1-c1ccccc1F [example 132],herbicidal activity against ALOMY,ALOMY [3]; application rate 500 g/ha,very good (a very good herbicidal activity is given at values of at least 85)
same,herbicidal activity against ECHCG,ECHCG [1]; application rate 500 g/ha,very good (a very good herbicidal activity is given at values of at least 85)
same,herbicidal activity against ECHCG,ECHCG [2]; application rate 500 g/ha,very good (a very good herbicidal activity is given at values of at least 85)
same,herbicidal activity against ALOMY,ALOMY [4],very good (a very good herbicidal activity is given at values of at least 85)
same,herbicidal activity against APESV,APESV; application rate 500 g/ha,very good (a very good herbicidal activity is given at values of at least 85)
O=C(O)c1nc(C2CC2)ncc1-c1cc(F)ccc1Cl [example 142],herbicidal activity against ALOMY,ALOMY [3]; application rate 500 g/ha,very good (a very good herbicidal activity is given at values of at least 85)
same,herbicidal activity against ECHCG,ECHCG [1]; application rate 500 g/ha,very good (a very good herbicidal activity is given at values of at least 85)
same,herbicidal activity against ECHCG,ECHCG [2]; application rate 500 g/ha,very good (a very good herbicidal activity is given at values of at least 85)
same,herbicidal activity against ALOMY,ALOMY [4],very good (a very good herbicidal activity is given at values of at least 85)
same,herbicidal activity against APESV,APESV; application rate 500 g/ha,very good (a very good herbicidal activity is given at values of at least 85)
O=C(O)c1nc(C2CC2)ncc1-c1ccc(F)cc1Cl [example 146],herbicidal activity against ALOMY,ALOMY [3]; application rate 500 g/ha,very good (a very good herbicidal activity is given at values of at least 85)
same,herbicidal activity against ECHCG,ECHCG [1]; application rate 500 g/ha,very good (a very good herbicidal activity is given at values of at least 85)
same,herbicidal activity against ALOMY,ALOMY [4],very good (a very good herbicidal activity is given at values of at least 85)
same,herbicidal activity against APESV,APESV; application rate 500 g/ha,very good (a very good herbicidal activity is given at values of at least 85)
O=C(O)c1nc(C2CC2)ncc1-c1cccc(F)c1Cl [example 150],herbicidal activity against ABUTH,ABUTH; application rate 1000 g/ha,very good (a very good herbicidal activity is given at values of at least 85)
same,herbicidal activity against ALOMY,ALOMY [3]; application rate 1000 g/ha,very good (a very good herbicidal activity is given at values of at least 85)
same,herbicidal activity against ECHCG,ECHCG [1]; application rate 1000 g/ha,very good (a very good herbicidal activity is given at values of at least 85)
same,herbicidal activity against APESV,APESV; application rate 1000 g/ha,very good (a very good herbicidal activity is given at values of at least 85)
COc1cc(C)c(-c2cnc(C3CC3)nc2C(=O)O)cc1C [example 169],herbicidal activity against ABUTH,ABUTH; application rate 1000 g/ha,very good (a very good herbicidal activity is given at values of at least 85)
same,herbicidal activity against ECHCG,ECHCG [2]; application rate 1000 g/ha,good (A good herbicidal activity is given at values of at least 70)
same,herbicidal activity against APESV,APESV; application rate 1000 g/ha,very good (a very good herbicidal activity is given at values of at least 85)
COC(=O)c1nc(C2CC2)ncc1-c1ccc(F)cc1Cl [example 207],herbicidal activity against ALOMY,ALOMY [3]; application rate 500 g/ha,good (A good herbicidal activity is given at values of at least 70)
same,herbicidal activity against ECHCG,ECHCG [1]; application rate 500 g/ha,very good (a very good herbicidal activity is given at values of at least 85)
same,herbicidal activity against ALOMY,ALOMY [4],very good (a very good herbicidal activity is given at values of at least 85)
same,herbicidal activity against APESV,APESV; application rate 500 g/ha,very good (a very good herbicidal activity is given at values of at least 85)
COC(=O)c1nc(C2CC2)ncc1-c1cc(C)c(OC)cc1C [example 232],herbicidal activity against ABUTH,ABUTH; application rate 1000 g/ha,very good (a very good herbicidal activity is given at values of at least 85)
same,herbicidal activity against ECHCG,ECHCG [1]; application rate 1000 g/ha,very good (a very good herbicidal activity is given at values of at least 85)
same,herbicidal activity against ECHCG,ECHCG [2]; application rate 1000 g/ha,very good (a very good herbicidal activity is given at values of at least 85)
same,herbicidal activity against APESV,APESV; application rate 1000 g/ha,very good (a very good herbicidal activity is given at values of at least 85)
Cc1ccccc1-c1cnc(C2CCC2)nc1C(=O)O [example 263],herbicidal activity against ABUTH,ABUTH; application rate 1000 g/ha,very good (a very good herbicidal activity is given at values of at least 85)
same,herbicidal activity against ECHCG,ECHCG [2]; application rate 1000 g/ha,very good (a very good herbicidal activity is given at values of at least 85)
same,herbicidal activity against APESV,APESV; application rate 1000 g/ha,good (A good herbicidal activity is given at values of at least 70)
O=C(O)c1ccccc1-c1cnc(C2CC2)nc1C(=O)O [example 318],herbicidal activity against ABUTH,ABUTH; application rate 2000 g/ha,very good (a very good herbicidal activity is given at values of at least 85)
same,herbicidal activity against ECHCG,ECHCG [1]; application rate 2000 g/ha,very good (a very good herbicidal activity is given at values of at least 85)
